Test [1] has as its system carrageenan-induced hind paw edema in rats. Description: Carrageenan-induced hind-paw edema model. The test is classed as in vivo, rat. The settings on record: 1 h before carrageenan. The procedure: Nine groups of male rats (200-220 g) with five animals per group were used in this experiment. Induction of edema in the rats' right hind paw was done by injecting 0.1 mL freshly prepared carrageenan solution (1% in 0.9% NaCl), into the sub-plantar tissue. […] By the aid of a caliper ruler, the paw thickness (mm) was measured in the dorsal- plantar axis before and after injecting the carrageenan solution, and at hourly intervals for 5 h, and finally at 24 h. The cumulative anti-inflammatory effect during the whole observation period (0-24 h) was determined by calculating the area under the changes in paw thickness-time curve (AUC0-24).
For orientation: In the carrageenan paw model, swelling and tenderness develop within hours.

Test [2] relates to acetic acid-induced vascular permeability in mice. Description: Acetic acid-induced vascular permeability (Evans blue). In kind it is in vivo, mouse. The procedure: Acetic acid-induced vascular permeability was done as described by Sobeh et al.. […] One group of mice was injected with normal saline to serve as normal control. Mice were euthanized 30 min later by cervical dislocation, the abdominal cavities were washed with 3 mL saline solution, and the collected washings were then centrifuged at 3000 rpm for 10 min. The vascular permeability is proportional to the absorbance of Evans blue dye in the supernatant, which was detected at 610 nm using a plate reader (Biotech, Winooski, VT, USA).

The test system of test [3] is leukocyte migration into the peritoneal cavity in mice. Description: Carrageenan-induced leukocyte recruitment into peritoneal cavity. In kind it is in vivo, mouse. The procedure:
Three hours later, the mice were euthanized, and each peritoneal cavity was washed with 3 mL of phosphate-buffered saline (PBS) containing 1mM ethylenediaminetetraacetic acid (EDTA). The total leukocytes count was determined in each peritoneal cavity wash using a hemocytometer and presented as number of cells/mL.

The next test addresses lipoxygenase (5-LOX). Description: Lipoxygenase inhibitor screening assay kit. The test is classed as biochemical. The note with it: in vitro, mean ± SEM, n = 3. On the procedure: The potential of T. algeriensis and T. fontanesii extracts to inhibit lipoxygenase was evaluated using a lipoxygenase inhibitor screening assay kit (Cayman Chemical, AnnArbor, MI, USA) according to the manufacturer’s instructions and the study by Adellall et al..

The test system of test [4] is Brewer's yeast induced pyrexia in mice. Description: Brewer's yeast induced pyrexia. The test is classed as in vivo, mouse. The note with it: in °C (unit assumed). On the procedure: Pyrexia in mice was induced as described by Liu et al. with minor modifications. The initial rectum temperature of each animal was measured using a lubricated digital thermometer. Brewer’s yeast suspension was prepared in normal saline (30%) and injected subcutaneously behind the animal’s neck (1 mL/100 g). After 18 h, animals’ rectal temperatures were measured again (T0). […] Pyretic animals were treated orally with either T. algeriensis or T. fontanesii extracts in three dose levels (200, 400, and 600 mg/kg), paracetamol (150 mg/kg), or vehicle. Rectal temperatures were measured at 30 min, 1, 2, 3 and 24 h following the different treatments.

Test [5] can be described thus: Total antioxidant capacity (TAC) ELISA kit. The note with it: mean ± SEM, n = 3. On the procedure: The total antioxidant capacity of the extracts was evaluated against ascorbic acid as a reference standard using the commercially available TAC ELISA kit (MBS726896, my BioSource, Inc., San Diego, CA, USA) according to the manufacturer’s instructions and according to Sobeh et al..
Background: In an ELISA, binding on a coated surface is turned into a signal by an enzyme label.

As to `O=C(O)Cc1ccccc1Nc1c(Cl)cccc1Cl` [Diclofenac], the “reduction of paw thickness, of control AUC0-24” value in test [1] (20 mg/kg p.o.) was found to be 44%. Further, the “lower Evans blue readings compared to control” value in test [2] (20 mg/kg) was determined as 73%. In test [3] (20 mg/kg p.o. before carrageenan 500 µg i.p.), the “reduction in leucocyte number” value is given as 39%. At lipoxygenase (5-LOX), the 50% inhibitory concentration (IC50) (commonly the concentration needed to halve the response being measured) worked out at 2600 ± 210 nM.
On to `CC(=O)Nc1ccc(O)cc1` [Paracetamol], for which, in test [4] (150 mg/kg p.o., 30 min), the “Rectal Temperature Recorded Following Different Treatments, 30 min” value worked out at 38.18 ± 0.20. For the same compound, in test [4] (150 mg/kg p.o., 1 h), the “Rectal Temperature Recorded Following Different Treatments, 1 h” value is listed as 37.56 ± 0.30. Besides, the “Rectal Temperature Recorded Following Different Treatments, 2 h” value in test [4] (150 mg/kg p.o., 2 h) turned out to be 37.06 ± 0.29. Also, in test [4] (150 mg/kg p.o., 3 h), the “Rectal Temperature Recorded Following Different Treatments, 3 h” value turned out to be 36.94 ± 0.25. For the same compound, in test [4] (150 mg/kg p.o., 24 h), the “Rectal Temperature Recorded Following Different Treatments, 24 h” value stood at 36.54 ± 0.23. The “Rectal Temperature measured at 18 h after yeast injection” value in test [4] (group of 150 mg/kg, before treatment (T0)) is 38.66 ± 0.18.
Regarding `C[C@@H]1C[C@H]2[C@@H]3CCC4=CC(=O)C=C[C@]4(C)[C@@]3(F)[C@@H](O)C[C@]2(C)[C@@]1(O)C(=O)CO` [dexamethasone], in test [1] (2 mg/kg p.o.), the “reduction in AUC0-24 values compared to vehicle-treated rats” value is given as 51%. For the same compound, the “lower Evans blue readings compared to control” value in test [2] (2 mg/kg) was determined as 60%. In test [3] (2 mg/kg p.o. before carrageenan 500 µg i.p.), the “reduction in leucocyte number” value is 30%.
`O=C1O[C@H]([C@@H](O)CO)C(O)=C1O` [Ascorbic Acid]: the “TAC (total antioxidant capacity)” value in test [5] came to 27.6 ± 1.40 U/L.
In turn, `CC(c1cc2ccccc2s1)N(O)C(N)=O` (stereo not drawn) [Zileuton] yielded an IC50 against lipoxygenase (5-LOX) of 3200 ± 150 nM.

Source of the values: article PMC7226370, “Thymus algeriensis and Thymus fontanesii: Chemical Composition, In Vivo Antiinflammatory, Pain Killing and Antipyretic Activities: A Comprehensive Comparison” (Biomolecules, 2020).
